The record followed here is US6399782B1, “Benzimidazole inhibitors of fructose 1,6-bisphosphatase” (Metabasis Therapeutics, Inc., priority 1997, dated 2002).

Structures can show the parent of a compound that is named as a salt.

Broadly, the melting point is the temperature of the solid-liquid transition. Take `CC(C)Cn1c(-c2ccc(P(=O)(O)O)o2)nc2c(N)c(F)cc(CCCN(C)C)c21` (as salt: hydrobromid) [Compound 12.84, 4-Amino-5-fluoro-7-(3-N,N-dimethylpropylamine)-1-isobutyl-2-(2-phosphono-5-furanyl)benzimidazole hydrobromide salt]: the melting point is 208 to 212 °C (dec.). As for `Cl.NCCCCn1c(-c2ccc(P(=O)(O)O)o2)nc2cc(Cl)ccc21` (hydrate or solvate), the figure is 236 to 240 °C (dec.); as for `Cc1cc(C)c2nc(-c3ccc(P(=O)(O)O)o3)n(CC(C)C)c2c1` (hydrate or solvate) [Compound 13.85, 1-Isobutyl-4,6-dimethyl-2-(2-phosphono-5-furanyl)benzimidazole], 209 to 212 °C.

For the compound `Cc1cc(C)c2c(c1)nc(-c1ccc(P(=O)(O)O)o1)n2CC(C)C` (hydrate or solvate) [Compound 13.87, 1-Isobutyl-5,7-dimethyl-2-(2-phosphono-5-furanyl)benzimidazole], the melting point was in the range of 196 to 200 °C. For `Cc1c(C)c(C)c2c(nc(-c3ccc(P(=O)(O)O)o3)n2CC2CC2)c1C` (hydrate or solvate) [Compound 13.88, 1-Cyclopropylmethyl-4,5,6,7-tetramethyl-2-(2-phosphono-5-furanyl)benzimidazole] the value was 207 to 208 °C; for `NCCCCn1c(-c2ccc(P(=O)(O)O)o2)nc2ccc(Cl)cc21` (hydrate or solvate) [Compound 13.95, 1-(4-Aminobutyl)-6-chloro-2-(2-phosphono-5-furanyl)benzimidazole], 250 to 252 °C (dec.); for `CC(C)Cn1c(-c2ccc(P(=O)(O)O)o2)nc2c(N)c(O)ccc21` [Compound 11.1, 4-Amino-5-hydroxy-1-isobutyl-2-(2-phosphono-5-furanyl)benzimidazole], 206 to 209 °C. For `COc1ccc2c(nc(-c3ccc(P(=O)(O)O)o3)n2CC(C)C)c1N` [Compound 12.55, 4-Amino-5-methoxy-1-isobutyl-2-(2-phosphono-5-furanyl)benzimidazole] the value was 212 to 213 °C; for `Nc1c(Br)c(Cl)c(Cl)c2nc(-c3ccc(P(=O)(O)O)o3)[nH]c12` [Compound 12.58, 4-Amino-5-bromo-6,7-dichloro-2-(2-phosphono-5-furanyl)benzimidazole], 224 to 225 °C.

Compound `CCCc1ccc2c(nc(-c3ccc(P(=O)(O)O)o3)n2CC(C)C)c1N` [Compound 12.60, 4-Amino-5-propyl-1-isobutyl-2-(2-phosphono-5-furanyl)benzimidazole] came in with a melting point of 207 to 210 °C. For the compound `CCc1cc(F)c(N)c2c1nc(-c1ccc(P(=O)(O)O)o1)n2CC(C)C` [Compound 12.65, 7-Amino-4-ethyl-6-fluoro-1-isobutyl-2-(2-phosphono-5-furanyl)benzimidazole], the melting point lay within 249 to 250 °C. For `CC(C)Cn1c(-c2ccc(P(=O)(O)O)o2)nc2c(N)c(F)cc(C3CC3)c21` [Compound 12.66, 4-Amino-7-cyclopropyl-5-fluoro-1-isobutyl-2-(2-phosphono-5-furanyl)benzimidazole], the melting point was 250 to 255 °C (dec.). For `CC(C)Cn1c(-c2ccc(P(=O)(O)O)o2)nc2c(N)c(F)cc(-c3ccccc3)c21` [Compound 12.67, 4-Amino-7-phenyl-5-fluoro-1-isobutyl-2-(2-phosphono-5-furanyl)benzimidazole] the value was 240 to 241 °C (dec.). As for `CC(C)Cn1c(-c2ccc(P(=O)(O)O)o2)nc2c(N)c(F)cc(-c3ccc(F)cc3)c21` [Compound 12.68, 4-Amino-7-p-fluorophenyl-5-fluoro-1-isobutyl-2-(2-phosphono5-furanyl)benzimidazole], the figure is 239 to 240 °C (dec.); as for `CC(C)Cn1c(-c2ccc(P(=O)(O)O)o2)nc2c(N)c(F)cc(-c3ccc(Cl)cc3)c21` [Compound 12.69, 4-Amino-7-p-chlorophenyl-5-fluoro-1-isobutyl-2-(2-phosphono-5-furanyl)benzimidazole], 235 to 236 °C (dec.); as for `C=Cc1cc(F)c(N)c2nc(-c3ccc(P(=O)(O)O)o3)n(CC(C)C)c12` [Compound 12.70, 4-Amino-7-vinyl-5-fluoro-1-isobutyl-2-(2-phosphono-5-furanyl)benzimidazole], 238 to 242 °C. As for `CCC(CC)Cn1c(-c2ccc(P(=O)(O)O)o2)nc2c(N)c(F)ccc21` [Compound 12.73, 4-Amino-5-fluoro-1-(2-ethylbutyl)-2-(2-phosphono-5-furanyl)benzimidazole], the figure is 178 to 182 °C (dec.); as for `COc1cccc(-c2cc(F)c(N)c3nc(-c4ccc(P(=O)(O)O)o4)n(CC(C)C)c23)c1` [Compound 12.74, 4-Amino-7-m-methoxyphenyl-5-fluoro-1-isobutyl-2-(2-phosphono-5-furanyl)benzimidazole], 208 to 212 °C (dec.); as for `CCc1cc(F)c(N)c2nc(-c3ccc(P(=O)(O)O)o3)n(CC3CC3)c12` [Compound 12.75, 4-Amino-7-ethyl-5-fluoro-1-cyclopropylmethyl-2-(2-phosphono-5-furanyl)benzimidazole], 178 to 185 °C.

Take `CCC(CC)n1c(-c2ccc(P(=O)(O)O)o2)nc2c(N)c(F)ccc21` [Compound 12.76, 4-Amino-5-fluoro-1-(3-pentyl)-2-(2-phosphono-5-furanyl)benzimidazole]: the melting point was 180 to 185 °C (dec.). As for `CC(C)Cn1c(-c2ccc(P(=O)(O)O)o2)nc2cc(F)c(F)c(F)c21` [Compound 12.77, 5,6,7-Trifluoro-1-isobutyl-2-(2-phosphono-5-furanyl)benzimidazole], the figure is 250 to 260 °C; as for `CC(C)Cn1c(-c2ccc(P(=O)(O)O)o2)nc2c(F)c(F)c(F)cc21` [Compound 12.78, 4,5,6-Trifluoro-1-isobutyl-2-(2-phosphono-5-furanyl)benzimidazole], 155 to 158 °C; as for `CCCc1cc(F)c(N)c2nc(-c3ccc(P(=O)(O)O)o3)n(CC(C)C)c12` [Compound 12.81, 4-Amino-5-fluoro-7-n-propyl-1-isobutyl-2-(2-phosphono-5-furanyl)benzimidazole], 220 to 230 °C (dec.).

`CC(C)Cn1c(-c2ccc(P(=O)(O)O)o2)nc2c(N)c(F)cc(CCCCCl)c21` [Compound 12.83, 4-Amino-5-fluoro-7-(4-chlorobutyl)-1-isobutyl-2-(2-phosphono-5-furanyl)benzimidazole]: the melting point is 210 to 220 °C (dec.). On to `O=P(O)(O)c1ccc(-c2nc3ccccc3[nH]2)o1` [Compound 13.1, 2-(2-Phosphono-5-furanyl)benzimidazole], for which the melting point was over 250 °C.

Turning to `CC(C)Cn1c(-c2ccc(P(=O)(O)O)o2)nc2ccccc21` [Compound 13.2, 1-Isobutyl-2-(2-phosphono-5-furanyl)benzimidazole], the melting point lay in the range of 200 to 203 °C. Compound `O=P(O)(O)c1ccc(-c2nc3ccccc3n2-c2ccccc2)o1` [Compound 13.12, 1-Phenyl-2-(2-phosphono-5-furanyl)benzimidazole] displayed a melting point of 196 to 200 °C. As for `O=C(O)c1ccccc1-n1c(-c2ccc(P(=O)(O)O)o2)nc2cc(Cl)ccc21` [Compound 13.13, 1-(2-Carboxyphenyl)-2-(2-phosphono-5-furanyl)-5-chloro benzimidazole], the figure is 220 to 224 °C; as for `CC(C)Cn1c(-c2ccc(P(=O)(O)O)o2)nc2cc(Cl)ccc21` [Compound 13.16, 5-Chloro-1-isobutyl-2-(2-phosphono-5-furanyl)benzimidazole], 238 °C.

Take `CC(C)COc1cccc2c1nc(-c1ccc(P(=O)(O)O)o1)n2CC(C)C` [Compound 13.20, 1-Isobutyl-4-isobutyloxy-2-(2-phosphono-5-furanyl)benzimidazole]: the melting point worked out at 350 °C. As to `CC(C)Cn1c(-c2ccc(P(=O)(O)O)o2)nc2ccc(F)cc21` [Compound 13.27, 6-Fluoro-1-isobutyl-2-(2-phosphono-5-furanyl)benzimidazole], the melting point was in the range of 202 to 205 °C. For `CC(C)n1c(-c2ccc(P(=O)(O)O)o2)nc2cc(Cl)ccc21` [Compound 13.33, 5-Chloro-1-isopropyl-2-(2-phosphono-5-furanyl)benzimidazole] the value was 192 to 195 °C; for `CC(C)Cn1c(-c2ccc(P(=O)(O)O)o2)nc2c(Cl)cc(Cl)cc21` [Compound 13.39, 4,6-Dichloro-1-isobutyl-2-(2-phosphono-5-furanyl)benzimidazole], 155 to 175 °C; for `CC(C)Cn1c(-c2ccc(P(=O)(O)O)o2)nc2c(Br)cc(Br)cc21` [Compound 13.43, 4,6-Dibromo-1-isobutyl-2-(2-phosphono-5-furanyl)benzimidazole], 150 to 210 °C. As for `CC(C)Cn1c(-c2ccc(P(=O)(O)O)o2)nc2cc(Cl)c(Cl)cc21` [Compound 13.44, 5,6-Dichloro-1-isobutyl-2-(2-phosphono-5-furanyl)benzimidazole], the figure is 225 to 227 °C. For the compound `O=P(O)(O)c1ccc(-c2nc3cc(Cl)c(Cl)cc3n2CC2CC2)o1` [Compound 13.45, 5,6-Dichloro-1-cyclopropylmethyl-2-(2-phosphono-5-furanyl)benzimidazole], the melting point fell in the range of 180 to 210 °C.

The compound `CC(C)Cn1c(-c2ccc(P(=O)(O)O)o2)nc2cc(Cl)c(F)cc21` [Compound 13.50, 5-Chloro-6-fluoro-1-isobutyl-2-(2-phosphono-5-furanyl)benzimidazole] yielded a melting point of 196 to 199 °C. For `Cc1c(Br)cc2c(nc(-c3ccc(P(=O)(O)O)o3)n2CC(C)C)c1C` [Compound 13.53, 4,5-Dimethyl-6-bromo-1-isobutyl-2-(2-phosphono-5-furanyl)benzimidazole], the melting point lay within 205 to 209 °C. As for `Cc1cccc2c1nc(-c1ccc(P(=O)(O)O)o1)n2CC(C)C` [Compound 13.54, 4-Methyl-1-isobutyl-2-(2-phosphono-5-furanyl)benzimidazole], the melting point fell in the range of 208 to 211 °C.
